From patent publication US9975878B2, “Substituted triazine BMI-1 inhibitors” (PTC Therapeutics, Inc., priority 2013, dated 2018) come the findings set out here.

For this experiment, the system named is Bmi-1 protein. As to the kind of experiment: Sandwich ELISA Assay: Bmi-1 protein level in HT-1080 cells treated with test compounds. In kind it is cell-based. As for the experimental part:
Cell Seeding and Compound Treatment (Day 1):
HT-1080 cells were seeded at 8000 cells/well (50 μL) in 96-well tissue culture plates. After the cells became adherent (3-4 hours), 2× diluted stocks of test compounds in 50 μL DMEM containing 1% DMSO (final DMSO concentration was 0.5%) were added and the plates were incubated at 37° C. under 5% CO2 for 40-48 hours.
ELISA Plate First Antibody Preparation (Day 2):
The First Antibody (Millipore Mouse, monoclonal to mouse Bmi-1, clone F6, catalog #05-637) diluted to 2 μg/mL in PBS was added (100 μL) to each well of a Nunc MaxiSorp 96-well ELISA plate. The plate was covered with a plate seal and allowed to stand overnight.
Cell Lysate Preparation (Day 3):
Fresh Lysis buffer (1×) was prepared on the day of the assay as follows: 1 mM EDTA, 150 mM NaCl, 0.5% Triton-X 100, 10 mM NaF, 20 mM B-Glycerophosphate, 1 mM DTT (in PBS, pH 7.2-7.4) and HALT protease inhibitor cocktail (1×) (Pierce #78410).
Lysis Buffer (1×, 40 μL) was added to each well and the plate was shaken for 5-10 minutes on an orbital shaker to allow cell lysis, then diluent (1% BSA in PBS in 0.5% NP40) (100 μL) was added to each well.
A standard curve was prepared at the following Bmi-1 concentrations: 8000, 4000, 2000, 1000, 500, 250, 125 and 0 pg/mL. The Bmi-1 Recombinant Protein Standard (Novus Biologicals PCGF4 Recombinant Protein (P01), catalog # H00000648-P01) used to prepare the standard curve was stored at −80° C. On first thaw, the Recombinant Protein Standard was diluted to 10 μg/μL in Blocking Buffer (1% BSA in PBS; BSA: Fisher Scientific Catalog #1600-100). Aliquots were taken and refrozen at −80° C. The aliquots may be kept at 4° C. and reused after first thaw, but only within 1-2 weeks. The Recombinant Protein Standard contains a GST-fusion tag that appears at approximately 70 Kda on Western Blot.
The prepared ELISA plate was washed 3× with Wash Buffer (0.05% Tween-20 in PBS). The final wash was removed from the plate and the plate was blotted dry. Blocking Buffer (300 μL) (1% BSA in PBS) was added to each well. The plate was covered with a plate seal and incubated at room temperature for 1 hour. The blocked plate was washed 3× with Wash Buffer, then the final wash was removed and the plate was blotted dry. The previously prepared samples and standards were added (100 μL/well) and the plate was covered with a plate seal and incubated at 4° C. overnight.
The prepared ELISA plate was removed from incubation and allowed to stand at room temperature for 30 minutes, then washed and blotted dry. The Second Antibody (Cell Signaling Rabbit anti-Bmi-1, Cat# 2830) diluted to 1:600 in Blocking Buffer was added (100 μL) to each well, except as needed for background control wells. The plate was covered with a plate seal and incubated for 1.5 hrs at room temperature.
The ELISA plate was washed and blotted dry as previously described. The Third Antibody (Cell Signaling HRP conjugated anti-rabbit IgG (CellSignaling, Cat#:7074) diluted to 1:300 in Blocking Buffer was added (100 μL) to each well, except as needed for background control wells. The plate was incubated for 1 hr at room temperature.
The plate was washed and blotted dry, then a previously prepared TMB substrate (TMB substrate kit, Pierce catalog #34021) (prepared by mixing kit reagents 1:1) (100 μL) was added per well. The plate was incubated for 20-30 minutes at room temperature in the dark, then Stop Solution (2 M sulfuric acid in water) (50 μL) was added per well. The plates were read at OD450 (experimental) and OD570 (reference).
As to `Nc1nc(Nc2ccc(OC(F)F)cc2)nc(-n2c(C3CC3)nc3cc(F)ccc32)n1` [Cpd 66, 6-(2-cyclopropyl-5-fluoro-1H-benzimidazol-1-yl)-N-[4-(difluoromethoxy)phenyl]-1,3,5-triazine-2,4-diamine], the EC50 (usually the concentration that produces a half-maximal response) was 0.01 to 0.1 µM.

With `Cc1nc2cc(F)c(F)cc2n1-c1nc(N)nc(Nc2ccc(C(F)(F)F)cc2)n1` [Cpd 9, 6-(5,6-difluoro-2-methyl-1H-benzimidazol-1-yl)-N-[4-(trifluoromethyl)phenyl]-1,3,5-triazine-2,4-diamine], the EC50 lay in the range of 0.1 to 3 µM.

`CCc1nc2c(F)cc(F)cc2n1-c1nc(N)nc(Nc2ccc(OC)cc2)n1` [Cpd 188, 6-(2-ethyl-4,6-difluoro-1H-benzimidazol-1-yl)-N-(4-methoxyphenyl)-1,3,5-triazine-2,4-diamine] displayed a half-maximal effective concentration (EC50) of 0.001 to 0.01 µM.

Regarding `Nc1nc(Nc2ccc(OC(F)F)cc2)nc(-n2c(C3CC3)nc3ncc(F)cc32)n1` [Cpd 77, 6-(2-cyclopropyl-6-fluoro-1H-imidazo[4,5-b]pyridin-1-yl)-N-[4-(difluoromethoxy)phenyl]-1,3,5-triazine-2,4-diamine], the EC50 fell in the range of 0.01 to 0.1 µM.

Compound `CCc1nc2c(F)cccc2n1-c1nc(N)nc(Nc2ccc(Cl)c(F)c2)n1` [Cpd 215, N-(4-chloro-3-fluorophenyl)-6-(2-ethyl-4-fluoro-1H-benzimidazol-1-yl)-1,3,5-triazine-2,4-diamine] came in with an EC50 of 0.01 to 0.1 µM.

With `Nc1nc(Nc2ccc(C(F)(F)F)c(F)c2)nc(-c2c(C(F)(F)F)nc3ccccn23)n1` [Cpd 71, N-[3-fluoro-4-(trifluoromethyl)phenyl]-6-[2-(trifluoromethyl)imidazo[1,2-a]pyridin-3-yl]-1,3,5-triazine-2,4-diamine], the concentration giving a half-maximal response (EC50) was in the range of 0.1 to 3 µM.

`CCc1nc2c(F)cccc2n1-c1nc(N)nc(Nc2ccc(OC(F)F)c(F)c2)n1` [Cpd 70, N-[4-(difluoromethoxy)-3-fluorophenyl]-6-(2-ethyl-4-fluoro-1H-benzimidazol-1-yl)-1,3,5-triazine-2,4-diamine] came in with an EC50 of 0.01 to 0.1 µM.

`CCc1nc2ccccc2n1-c1nc(N)nc(Nc2ccc(OC)cc2)n1` [Cpd 159, 6-(2-ethyl-1H-benzimidazol-1-yl)-N-(4-methoxyphenyl)-1,3,5-triazine-2,4-diamine]: the concentration giving a half-maximal response (EC50) fell in the range of 0.001 to 0.01 µM.

`Cc1nc2ccccc2n1-c1nc(N)nc(Nc2cnc3ccccc3c2)n1` [Cpd 20, 6-(2-methyl-1H-benzimidazol-1-yl)-N-(quinolin-3-yl)-1,3,5-triazine-2,4-diamine] gave an EC50 of 0.001 to 0.01 µM.

In the case of `CCc1nc2ccccc2n1-c1nncc(Nc2ccc(OC)cc2)n1` [Cpd 145, 3-(2-ethyl-1H-benzimidazol-1-yl)-N-(4-methoxyphenyl)-1,2,4-triazin-5-amine], the concentration giving a half-maximal response (EC50) was 0.001 to 0.01 µM.

Regarding `Cc1nc2ccc(Cl)cc2n1-c1nc(N)nc(Nc2ccc(OC(F)F)cc2)n1` [Cpd 81, 6-(6-chloro-2-methyl-1H-benzimidazol-1-yl)-N-[4-(difluoromethoxy)phenyl]-1,3,5-triazine-2,4-diamine], the concentration for a half-maximal effect (EC50) lay in the range of 0.01 to 0.1 µM.

Take `Cc1nc2ccc(F)cc2n1-c1nc(N)nc(Nc2ccc(Br)cc2)n1` [Cpd 211, N-(4-bromophenyl)-6-(6-fluoro-2-methyl-1H-benzimidazol-1-yl)-1,3,5-triazine-2,4-diamine]: the 50% effective concentration (EC50) fell in the range of 0.01 to 0.1 µM.

`Nc1nc(Nc2ccc(OC(F)F)cc2)nc(-n2c(C(F)F)nc3cc(F)c(F)cc32)n1` [Cpd 115, N-[4-(difluoromethoxy)phenyl]-6-[2-(difluoromethyl)-5,6-difluoro-1H-benzimidazol-1-yl]-1,3,5-triazine-2,4-diamine]: the EC50 lay in the range of 0.01 to 0.1 µM.

In turn, `Cc1nc2ccc(F)cc2n1-c1nc(N)nc(Nc2ccc(C(F)(F)F)cc2)n1` [Cpd 26, 6-(6-fluoro-2-methyl-1H-benzimidazol-1-yl)-N-[4-(trifluoromethyl)phenyl]-1,3,5-triazine-2,4-diamine] registered a concentration giving a half-maximal response (EC50) of 0.01 to 0.1 µM.

In the case of `Cc1nc2ccc(Cl)cc2n1-c1nc(N)nc(Nc2ccc(C(F)(F)F)cc2)n1` [Cpd 75, 6-(6-chloro-2-methyl-1H-benzimidazol-1-yl)-N-[4-(trifluoromethyl)phenyl]-1,3,5-triazine-2,4-diamine], the EC50 lay in the range of 0.01 to 0.1 µM.

For `Nc1nc(Nc2ccc(OC(F)F)cc2)nc(-n2c(C3CC3)nc3ccccc32)n1` [Cpd 43, 6-(2-cyclopropyl-1H-benzimidazol-1-yl)-N-[4-(difluoromethoxy)phenyl]-1,3,5-triazine-2,4-diamine], the half-maximal effective concentration (EC50) fell in the range of 0.01 to 0.1 µM.

`Cc1nc2ccccc2n1-c1nc(N)nc(Nc2ccc3ocnc3c2)n1` [Cpd 15, N-(1,3-benzoxazol-5-yl)-6-(2-methyl-1H-benzimidazol-1-yl)-1,3,5-triazine-2,4-diamine]: the EC50 was in the range of 0.1 to 3 µM.

Consider `Nc1nc(Nc2ccc(OC(F)F)c(F)c2)nc(-n2c(C3CC3)nc3ccccc32)n1` [Cpd 44, 6-(2-cyclopropyl-1H-benzimidazol-1-yl)-N-[4-(difluoromethoxy)-3-fluorophenyl]-1,3,5-triazine-2,4-diamine], for which the EC50 was 0.01 to 0.1 µM.

Consider `N#CCc1nc2ccccc2n1-c1nc(N)nc(Nc2ccc(C(F)(F)F)cc2)n1` [Cpd 119, [1-(4-amino-6-{[4-(trifluoromethyl)phenyl]amino}-1,3,5-triazin-2-yl)-1H-benzimidazol-2-yl]acetonitrile], for which the concentration for a half-maximal effect (EC50) is 0.1 to 3 µM.

`Cc1nc2c(F)cccc2n1-c1nc(N)nc(Nc2ccc(Br)cc2)n1` [Cpd 219, N-(4-bromophenyl)-6-(4-fluoro-2-methyl-1H-benzimidazol-1-yl)-1,3,5-triazine-2,4-diamine] displayed an EC50 of 0.01 to 0.1 µM.

For the compound `CCc1nc2c(F)cccc2n1-c1nc(N)nc(Nc2ccc(OC(F)F)cc2)n1` [Cpd 69, N-[4-(difluoromethoxy)phenyl]-6-(2-ethyl-4-fluoro-1H-benzimidazol-1-yl)-1,3,5-triazine-2,4-diamine], the concentration giving a half-maximal response (EC50) lay in the range of 0.01 to 0.1 µM.

Regarding `FC(F)(F)c1ccc(Nc2nncc(-n3c(C4CC4)nc4ccccc43)n2)cc1` [Cpd 133, 5-(2-cyclopropyl-1H-benzimidazol-1-yl)-N-[4-(trifluoromethyl)phenyl]-1,2,4-triazin-3-amine], the 50% effective concentration (EC50) was in the range of 0.01 to 0.1 µM.

Compound `Nc1nc(Nc2ccc(OC(F)F)cc2)nc(-n2c(CO)nc3ccccc32)n1` [Cpd 120, [1-(4-amino-6-{[4-(difluoromethoxy)phenyl]amino}-1,3,5-triazin-2-yl)-1H-benzimidazol-2-yl]methanol] displayed a half-maximal effective concentration (EC50) of 0.1 to 3 µM.

In turn, `Cc1nc2c(F)cc(F)cc2n1-c1nc(N)nc(Nc2ccc(Cl)c(F)c2)n1` [Cpd 199, N-(4-chloro-3-fluorophenyl)-6-(4,6-difluoro-2-methyl-1H-benzimidazol-1-yl)-1,3,5-triazine-2,4-diamine] came in with an EC50 of 0.1 to 3 µM.

Take `CCc1nc2ccccc2n1-c1nnc(N)c(Nc2ccc(C(F)(F)F)cc2)n1` [Cpd 142, 3-(2-ethyl-1H-benzimidazol-1-yl)-N^5-[4-(trifluoromethyl)phenyl]-1,2,4-triazine-5,6-diamine]: the concentration giving a half-maximal response (EC50) lay in the range of 0.1 to 3 µM.

Compound `Nc1nc(Nc2ccc(Br)cc2)nc(-n2c(C3CC3)nc3c(F)cccc32)n1` [Cpd 220, N-(4-bromophenyl)-6-(2-cyclopropyl-4-fluoro-1H-benzimidazol-1-yl)-1,3,5-triazine-2,4-diamine] came in with a 50% effective concentration (EC50) of 0.01 to 0.1 µM.

Compound `CCc1nc2ccccc2n1-c1nc(N)nc(Nc2ccc(Cl)cc2)n1` [Cpd 162, N-(4-chlorophenyl)-6-(2-ethyl-1H-benzimidazol-1-yl)-1,3,5-triazine-2,4-diamine] displayed an EC50 of 0.01 to 0.1 µM.

Compound `Cc1nc2cc(F)c(F)cc2n1-c1nc(N)nc(Nc2ccc(Cl)cc2)n1` [Cpd 196, N-(4-chlorophenyl)-6-(5,6-difluoro-2-methyl-1H-benzimidazol-1-yl)-1,3,5-triazine-2,4-diamine] showed an EC50 of 0.1 to 3 µM.
